This passage reports IC50 results from patent US10316035B2, “Triazolopyridine inhibitors of myeloperoxidase” (BRISTOL-MYERS SQUIBB COMPANY, priority 2015, dated 2019).

The first assay addresses T1, myeloperoxidase (MPO) (Homo sapiens, UniProt P05164).
T1 sequence (P05164 49-745): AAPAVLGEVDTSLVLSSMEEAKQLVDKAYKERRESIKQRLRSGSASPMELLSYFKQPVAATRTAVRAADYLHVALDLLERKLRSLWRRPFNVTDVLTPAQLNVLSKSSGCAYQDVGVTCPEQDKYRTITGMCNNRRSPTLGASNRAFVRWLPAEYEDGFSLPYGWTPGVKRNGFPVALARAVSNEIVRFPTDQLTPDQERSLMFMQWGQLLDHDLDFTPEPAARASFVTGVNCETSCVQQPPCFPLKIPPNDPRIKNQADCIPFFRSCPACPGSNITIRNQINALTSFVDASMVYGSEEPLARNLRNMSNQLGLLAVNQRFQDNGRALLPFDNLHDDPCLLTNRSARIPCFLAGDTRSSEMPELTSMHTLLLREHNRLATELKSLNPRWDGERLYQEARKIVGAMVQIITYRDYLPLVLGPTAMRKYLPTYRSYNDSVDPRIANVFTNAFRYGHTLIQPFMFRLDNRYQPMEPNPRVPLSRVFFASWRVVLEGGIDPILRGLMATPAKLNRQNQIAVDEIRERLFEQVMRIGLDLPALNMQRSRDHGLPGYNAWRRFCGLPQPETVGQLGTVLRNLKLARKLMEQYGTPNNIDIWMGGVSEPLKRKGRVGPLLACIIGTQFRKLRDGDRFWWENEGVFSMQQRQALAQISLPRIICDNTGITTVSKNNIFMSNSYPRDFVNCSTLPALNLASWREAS
The experiment in a line: MPO peroxidation assay (Amplex Red assay). Type of assay: biochemical.
Conditions: not given
How it is done:
MPO Peroxidation Assay (Amplex Red Assay)
MPO peroxidation activity was measured in 100 mM KPi (pH 7.4) by utilizing the non-fluorescent reagent Amplex Red (Invitrogen catalog # A12222) which can be oxidized to the highly fluorescent resorufin. Amplex Red is oxidized by the peroxidase action of MPO to resorufin. Reactions were carried out in 50 μL total volume by adding a 25 μL mixture of 200 pM myeloperoxidase and 40 nM H2O2(Sigma #349887) to 100 nL inhibitor in 100% DMSO in a 384 well Perkin Elmer Optiplate. Enzyme and compound were preincubated for ten minutes at room temperature.
After the ten minute preincubation, 25 μL of an Amplex Red mixture containing 200 μM Amplex Red and 10 mM H2O2 was added to the plate. Kinetic determinations were carried out immediately on a Perkin Elmer Envision (15 minute kinetic read, Ex: 535 nm, Em: 590 nm).
IC50 values were calculated by determining the slope of the linear portion of the kinetic trace ([…]), and using that calculated slope to determine % inhibition occurring at each concentration of inhibitor using the following equation:
[formula] where A=minimal Y value (activity level of inhibited sample), B=maximal Y value (activity level of uninhibited sample), C=Log IC50, D=Hill Slope, x=concentration of inhibitor. MPO Chlorination Assay (APF Assay)
As usually defined, the IC50 is the midpoint of a concentration-inhibition curve. `Nc1cc(OCc2ccccc2F)c2nn[nH]c2n1` [Example 55, 7-(2-Fluorobenzyloxy)-3H-[1,2,3]triazolo[4,5-b]pyridin-5-amine] yielded an IC50 of 0.001 to 0.1 µM.

The assay is the same for the next values; noted with them: MPO peroxidation, potency range class; read-out: Amplex Red IC50.
Regarding `CN(C)S(=O)(=O)c1ccccc1-c1ccc(COc2cc(N)nc3[nH]nnc23)c(Cl)c1` [Example 46, 4′-((5-Amino-3H-[1,2,3]triazolo[4,5-b]pyridin-7-yloxy)methyl)-3′-chloro-N,N-dimethylbiphenyl-2-sulfonamide], the IC50 lay in the range of 0.001 to 0.1 µM.

Take `Nc1cc(OCc2cc(C(=O)NCc3ccccc3)ccc2F)c2nn[nH]c2n1` [Example 47, 3-((5-Amino-3H-[1,2,3]triazolo[4,5-b]pyridin-7-yloxy)methyl)-N-benzyl-4-fluorobenzamide]: the IC50 lay within 0.001 to 0.1 µM.

Regarding `Nc1cc(OCc2cc(C(=O)NC3CC3)ccc2F)c2nn[nH]c2n1` [Example 48, 3-((5-Amino-3H-[1,2,3]triazolo[4,5-b]pyridin-7-yloxy)methyl)-N-cyclopropyl-4-fluorobenzamide], the IC50 lay within 0.001 to 0.1 µM.

With `Nc1cc(OCc2cc(C(=O)Nc3cccc(Cl)c3)ccc2F)c2nn[nH]c2n1` [Example 49, 3-((5-Amino-3H-[1,2,3]triazolo[4,5-b]pyridin-7-yloxy)methyl)-N-(3-chlorophenyl)-4-fluorobenzamide], the IC50 lay in the range of 0.001 to 0.1 µM.

Take `Nc1cc(OCC2CCc3ccccc3C2)c2nn[nH]c2n1` (stereo not shown) [Example 51, 7-((1,2,3,4-Tetrahydronaphthalen-2-yl)methoxy)-3H-[1,2,3]triazolo[4,5-b]pyridin-5-amine]: the IC50 fell in the range of 0.101 to 0.999 µM.

As to `CC1CC(c2ccccc2)CCC1COc1cc(N)nc2[nH]nnc12` (stereo not shown) [Example 53, 7-((2-Methyl-4-phenylcyclohexyl)methoxy)-3H-[1,2,3]triazolo[4,5-b]pyridin-5-amine], the half-maximal inhibitory concentration (IC50) was 0.101 to 0.999 µM.

For the compound `NC(=O)c1cccc(COc2cc(N)nc3[nH]nnc23)c1` [Example 56, 3-((5-Amino-3H-[1,2,3]triazolo[4,5-b]pyridin-7-yloxy)methyl)benzamide], the IC50 lay in the range of 0.101 to 0.999 µM.

Turning to `COc1ccc(Br)cc1COc1cc(N)nc2[nH]nnc12` [Example 58, 7-(5-Bromo-2-methoxybenzyloxy)-3H-[1,2,3]triazolo[4,5-b]pyridin-5-amine], the IC50 lay in the range of 0.001 to 0.1 µM.

Turning to `COc1c(Br)cccc1COc1cc(N)nc2[nH]nnc12` [Example 59, 7-(3-Bromo-2-methoxybenzyloxy)-3H-[1,2,3]triazolo[4,5-b]pyridin-5-amine], the half-inhibitory concentration (IC50) was 0.001 to 0.1 µM.

In the case of `Cc1c(Br)cccc1COc1cc(N)nc2[nH]nnc12` [Example 60, 7-(3-Bromo-2-methylbenzyloxy)-3H-[1,2,3]triazolo[4,5-b]pyridin-5-amine], the IC50 lay within 0.001 to 0.1 µM.

Regarding `Nc1cc(OCc2cccc(Br)c2F)c2nn[nH]c2n1` [Example 62, 7-(3-Bromo-2-fluorobenzyloxy)-3H-[1,2,3]triazolo[4,5-b]pyridin-5-amine], the IC50 lay in the range of 0.001 to 0.1 µM.

With `Cc1c(COc2cc(N)nc3[nH]nnc23)cccc1-c1cncc(F)c1` [Example 63, 7-(3-(5-Fluoropyridin-3-yl)-2-methylbenzyloxy)-3H-[1,2,3]triazolo[4,5-b]pyridin-5-amine], the IC50 lay in the range of 0.001 to 0.1 µM.

As for `COc1ccc(-c2cccc(COc3cc(N)nc4[nH]nnc34)c2)c(F)c1` [Example 64, 7-((2′-Fluoro-4′-methoxybiphenyl-3-yl)methoxy)-3H-[1,2,3]triazolo[4,5-b]pyridin-5-amine], the IC50 lay within 0.101 to 0.999 µM.

Consider `Cc1ccc(-c2cccc(F)c2)cc1COc1cc(N)nc2[nH]nnc12` [Example 65, 7-((3′-Fluoro-4-methylbiphenyl-3-yl)methoxy)-3H-[1,2,3]triazolo[4,5-b]pyridin-5-amine], for which the IC50 was in the range of 0.001 to 0.1 µM.

As to `COc1ccc(-c2cccc(F)c2)cc1COc1cc(N)nc2[nH]nnc12` [Example 66, 7-((3′-Fluoro-4-methoxybiphenyl-3-yl)methoxy)-3H-[1,2,3]triazolo[4,5-b]pyridin-5-amine], the IC50 lay in the range of 0.001 to 0.1 µM.
